ChEMBL document CHEMBL1155188, “Sesquiterpenoids from Pilea cavaleriei subsp. crenata” (Bioorg Med Chem Lett, 2009)
Converted amounts (≈) assume the structure as drawn. The source made the active and inactive calls. The rule behind the calls is not given here.

How the values were obtained:
SK-OV-3 = assay: Cytotoxicity against human SKOV3 cells after 48 hrs by MTT assay; assay type: functional, cell-based
K562 = assay: Cytotoxicity against human K562 cells after 48 hrs by MTT assay; assay type: functional, cell-based
[1] = Cytotoxicity against human AGZY cells after 48 hrs by MTT assay; assay type: functional, cell-based
A549 = assay: Cytotoxicity against human A549 cells by SRB assay; assay type: functional, cell-based
EJ = assay: Cytotoxicity against human EJ cells after 48 hrs by MTT assay; assay type: functional, cell-based
[2] = Cytotoxicity against human GLC82 cells after 48 hrs by MTT assay; assay type: functional, cell-based
MCF7 = assay: Cytotoxicity against human MCF7 cells after 48 hrs by MTT assay; assay type: functional, cell-based; conditions: MCF7, 48 h
SGC-7901 = assay: Cytotoxicity against human SGC7901 cells after 48 hrs by MTT assay; assay type: functional, cell-based
Staphylococcus aureus = assay: Antibacterial activity against Staphylococcus aureus by microdilution assay; assay type: functional
Escherichia coli = assay: Antibacterial activity against Escherichia coli by microdilution assay; assay type: functional, organism-based
[3] = Cytotoxicity against human BIU87 cells after 48 hrs by MTT assay; assay type: functional, cell-based
[4] = Homo sapiens, K562, 48 h, read-out: IC50

Compound	IC50 (SK-OV-3)	IC50 (K562; [4]) [µg/mL]	IC50 ([1]; Homo sapiens, AGZY, 48 h, read-out: IC50) [µg/mL]	IC50 (A549) [µg/mL]	IC50 (EJ)	IC50 [2]	IC50 (MCF7) [µg/mL]	IC50 (SGC-7901; Homo sapiens, SGC-7901, 48 h, read-out: IC50) [µg/mL]	MIC (Staphylococcus aureus)	MIC (Escherichia coli)	IC50 [3]	IC50 ([1]; agzy)	IC50 (SGC-7901; sgc-7901)	IC50 (K562; k562)
C/C1=C\CC(C)(C)C[C@@H](OC(=O)/C=C/c2ccc(O)cc2)C/C(C)=C/CC1	Not Active	12 (≈ 32.6 µM)	27.8 (≈ 75.5 µM)	25.6 (≈ 69.5 µM)	Not Active	Not Active	40.5 (≈ 110 µM)	49.4 (≈ 134 µM)	inactive	inactive	Not Active	–	–	–
O=c1[nH]cc(F)c(=O)[nH]1 [FLUOROURACIL]	–	–	–	2 (≈ 15.4 µM)	–	–	–	–	–	–	–	–	–	–
CC(C)[C@@H]1CC[C@]2(C)[C@H]3CC[C@]2(C)[C@H](OC(=O)/C=C/c2ccc(O)cc2)[C@@H]13	Not Active	41.7 (≈ 113 µM)	–	–	Not Active	Not Active	–	–	–	–	Not Active	Not Active	Not Active	–
C=C1CC/C=C(\C)C[C@H](OC(=O)/C=C/c2ccc(O)c([N+](=O)[O-])c2)CC(C)(C)C[C@@H]1O	Not Active	–	–	–	Not Active	Not Active	–	–	–	–	Not Active	Not Active	Not Active	Not Active
C=C1CC/C=C(\C)C[C@H](OC(=O)/C=C/c2ccc(O)cc2)CC(C)(C)C[C@@H]1OO	Not Active	57.4 (≈ 143 µM)	–	33.4 (≈ 83.3 µM)	Not Active	Not Active	23.4 (≈ 58.4 µM)	–	45 µg/mL (≈ 112 µM)	inactive	Not Active	Not Active	Not Active	–
GENTAMICIN	–	–	–	–	–	–	–	–	0.05 µg/mL	0.05 µg/mL	–	–	–	–
